# Laboratory results reported in patent US20250320205A1, “STAT6 DEGRADERS” (Gilead Sciences, Inc., priority 2024, published 2025).
# Key:
# STAT6 = target: T1, STAT6 (Homo sapiens, UniProt P42226); assay: STAT6 Degrader Assay (HiBiT based, HeLa LgBiT clone 4.14 cells); format: cell-based; conditions: geometric mean across assay runs and compound batches; DC50 provided for test compounds with >80% Emax; read-out: STAT6 degradation DC50
# T1 construct: These cells express endogenous STAT6; host or cells: HeLa LgBiT clone 4.14 (CRISPR knock-in of HiBiT into the endogenous STAT6 gene)
# T1 sequence (P42226 1-847): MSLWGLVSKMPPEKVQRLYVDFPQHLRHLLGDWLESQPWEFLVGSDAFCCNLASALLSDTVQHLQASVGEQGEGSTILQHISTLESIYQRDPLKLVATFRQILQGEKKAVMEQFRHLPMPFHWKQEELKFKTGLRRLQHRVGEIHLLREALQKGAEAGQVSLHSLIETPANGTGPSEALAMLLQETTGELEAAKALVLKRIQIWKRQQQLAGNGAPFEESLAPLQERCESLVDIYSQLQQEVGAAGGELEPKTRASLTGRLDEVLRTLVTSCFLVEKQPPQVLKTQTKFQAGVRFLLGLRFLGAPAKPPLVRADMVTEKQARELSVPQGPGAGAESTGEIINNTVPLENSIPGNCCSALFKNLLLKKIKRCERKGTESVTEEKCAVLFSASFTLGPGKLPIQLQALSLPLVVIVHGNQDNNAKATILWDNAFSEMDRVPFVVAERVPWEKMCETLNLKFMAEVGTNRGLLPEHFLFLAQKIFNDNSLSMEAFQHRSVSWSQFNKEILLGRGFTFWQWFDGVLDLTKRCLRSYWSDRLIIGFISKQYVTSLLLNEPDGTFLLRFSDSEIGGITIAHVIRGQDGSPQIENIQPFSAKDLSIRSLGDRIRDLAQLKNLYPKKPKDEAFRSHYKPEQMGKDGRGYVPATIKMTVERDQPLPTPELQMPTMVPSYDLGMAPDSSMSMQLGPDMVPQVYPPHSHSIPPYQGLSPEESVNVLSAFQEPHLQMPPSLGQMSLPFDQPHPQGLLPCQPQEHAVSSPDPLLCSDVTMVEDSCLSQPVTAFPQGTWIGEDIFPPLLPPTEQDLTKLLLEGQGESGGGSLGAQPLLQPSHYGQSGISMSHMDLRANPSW
# Outline: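 DC50 (nM) comes from NanoBiT luminescence of HiBiT-knock-in STAT6 in HeLa LgBiT clone 4.14 cells, treated 4-24 h at 37° C. Luminescence reflects non-degraded STAT6, with 50 μM terfenadine wells taken as full degradation.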
# [1] = test system: Eotaxin-3 (CCL26) release; assay: Human Whole Blood Eotaxin-3 Assay (IL-4 stimulated); format: cell-based; conditions: Homo sapiens; geometric mean across assay runs and compound batches; EC50 provided for test compounds with >80% Emax
# Outline: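 Lithium-heparin human whole blood preincubated 2 h at 37 °C with compounds (4-fold dilutions, triplicate, 0.5% DMSO final). Then stimulated with 400 pM final recombinant human IL-4 for 48 h. Eotaxin-3 in supernatant quantified by MSD immunoassay.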
SMILES,DC50 (STAT6) [nM],EC50 [1] [nM]
"CNc1cc(=O)n(-c2ccnc3c2cc([C@H](C)N2CC=C(c4c(C)cc(C(=O)N5CCn6nc(CN7CCC(c8ccc(NC9CCC(=O)NC9=O)c(OC)c8)CC7)cc6C5)cc4F)CC2)n3C)cc1F (stereo partly drawn) [Example 2g90, 3-((4-(1-((5-(3-fluoro-4-(1-((S)-1-(4-(5-fluoro-4-(meth-ylamino)-2-oxopyridin-1(2H)-yl)-1-methyl-1H-pyrrolo[2,3-b]pyridin-2-yl)ethyl)-1,2,3,6-tetrahydropyridin-4-yl)-5-methylbenzoyl)-4,5,6,7-tetra-hydropyrazolo[1,5-a]pyrazin-2-yl)methyl)piperidin-4-yl)-2-methoxyphenyl)amino)-piperidine-2,6-dione]",0.2,0.6
"C[C@@H](c1cc2c(-n3ccc4c(c3=O)CCN4)ccnc2n1C)N1CCC(c2ccc(C(=O)N3CCC(CN4CCN(c5ccc(N[C@@H]6CCC(=O)NC6=O)cc5F)CC4)CC3)cc2)CC1 (single isomer, unassigned) [Example 2c35]",7.5,18.7
"CNc1ccn(-c2ccnc3c2cc([C@H](C)N2CC=C(c4c(C)cc(C(=O)N5CCn6nc(CN7CCC(c8ccc(NC9CCC(=O)NC9=O)c(OC)c8)CC7)cc6C5)cc4F)CC2)n3C)c(=O)c1 (stereo partly drawn) [Example 2g116, 3-((4-(1-((5-(3-fluoro-5-meth-yl-4-(1-((S)-1-(1-methyl-4-(4-(methylamino)-2-oxopyridin-1(2H)-yl)-1H-pyrrolo[2,3-b]pyridin-2-yl)ethyl)-1,2,3,6-tetrahydropyridin-4-yl)benzo-yl)-4,5,6,7-tetrahydropyrazolo [1,5-a]pyrazin-2-l)methyl)-piperidin-4-yl)-2-methoxy-phenyl)amino)-piperidine-2,6-dione]",0.3,0.5
"CNc1ccn(-c2ccnc3c2cc([C@@H](C)N2CC=C(c4c(F)cc(C(=O)N5CCn6nc(CN7CCC(c8ccc(NC9CCC(=O)NC9=O)cc8F)CC7)cc6C5)cc4F)CC2)n3C)c(=O)c1 (stereo partly drawn) [Example 2g103, 3-((4-(1-((5-(3,5-difluoro-4-(1-((R)-1-(1-methyl-4-(4-(methylamino)-2-oxopyridin-1(2H)-yl)-1H-pyrrolo[2,3-b]pyridin-2-yl)ethyl)-1,2,3,6-tetrahydropyridin-4-yl)benzo-yl)-4,5,6,7-tetrahydropyrazolo [1,5-a]pyrazin-2-yl)methyl)-piperidin-4-yl)-3-fluorophen-yl)amino)piperidine-2,6-dione]",8.8,13.1
"CNc1cc(=O)n(-c2ccnc3c2cc([C@H](C)N2CC=C(c4c(C)cc(C(=O)N5CCn6nc(CN7CCC(c8ccc(N[C@@H]9CCC(=O)NC9=O)c(OC)c8)CC7)cc6C5)cc4F)CC2)n3C)cc1F (single isomer, unassigned) [Example 2g12]",0.7,0.5
"CNc1cc(=O)n(-c2ccnc3c2cc(CN2CCC(c4c(F)cc(C(=O)N5CCC(CN6CCN(c7ccc(NC8CCC(=O)NC8=O)cc7F)CC6)CC5)cc4F)CC2)n3C)cc1F (stereo not drawn) [Example 2g32, 3-((4-(4-((1-(3,5-difluoro-4-(1-((4-(5-fluoro-4-(methyl-amino)-2-oxopyridin-1(2H)-yl)-1-methyl-1H-pyrrolo[2,3-b]pyridin-2-yl)methyl)piperi-din-4-yl)benzoyl)piperidin-4-yl)methyl)piperazin-1-yl)-3-fluorophenyl)amino)piperi-dine-2,6-dione]",10.6,56.9
"Cn1c(CN2CCC(c3c(F)cc(C(=O)N4CCC(CN5CCN(c6ccc(NC7CCC(=O)NC7=O)cc6F)CC5)CC4)cc3F)CC2)cc2c(-n3ccc4c(c3=O)CCN4)ccnc21 (stereo not drawn) [Example 2g35, 3-((4-(4-((1-(3,5-difluoro-4-(1-((1-methyl-4-(4-oxo-1,2,3,4-tetrahydro-5H-pyrrolo [3,2-c]pyridin-5-yl)-1H-pyrrolo[2,3-b]pyridin-2-yl)-methyl)piperidin-4-yl)benzo-yl)piperidin-4-yl)methyl)-piperazin-1-yl)-3-fluorophen-yl)-amino)piperidine-2,6-dione]",16,73.2
"CNc1cc(=O)n(-c2ccnc3c2cc(CN2CCC(c4c(F)cc(C(=O)N5CCn6nc(CN7CCC(c8ccc(N[C@@H]9CCC(=O)NC9=O)c(OC)c8)CC7)cc6C5)cc4F)CC2)n3C)cc1F (single isomer, unassigned) [Example 2g124]",2.5,5.7
"CNc1ccn(-c2ccnc3c2cc([C@H](C)N2CC=C(c4c(C)cc(C(=O)N5CCn6nc(CN7CCC(c8cc(OC)c(NC9CCC(=O)NC9=O)cc8F)CC7)cc6C5)cc4F)CC2)n3C)c(=O)c1 (stereo partly drawn) [Example 2g128, 3-((5-fluoro-4-(1-((5-(3-fluoro-5-methyl-4-(1-((S)-1-(1-methyl-4-(4-(methyl-amino)-2-oxopyridin-1(2H)-yl)-1H-pyrrolo[2,3-b]pyridin-2-yl)ethyl)-1,2,3,6-tetrahydro-pyridin-4-yl)benzoyl)-4,5,6,7-tetrahydropyrazolo[1,5-a]pyr-azin-2-yl)methyl)piperidin-4-yl)-2-methoxyphenyl)amino)-piperidine-2,6-dione]",0.1,0.2
"CNc1ccn(-c2ccnc3c2cc([C@H](C)N2CC=C(c4c(C)cc(C(=O)N5CCC(CN6CCN(Cc7ccc(NC8CCC(=O)NC8=O)c(F)c7)CC6)CC5)cc4F)CC2)n3C)c(=O)c1 (stereo partly drawn) [Example 2g10, 3-((2-fluoro-4-((4-((1-(3-fluoro-5-methyl-4-(1-((S)-1-(1-methyl-4-(4-(methyl-amino)-2-oxopyridin-1(2H)-yl)-1H-pyrrolo[2,3-b]pyridin-2-yl)ethyl)-1,2,3,6-tetrahydro-pyridin-4-yl)benzoyl)-piper-idin-4-yl)methyl)piperazin-1-yl)methyl)phenyl)amino)-piperidine-2,6-dione]",11.4,19.2
"CNc1ccn(-c2ccnc3c2cc([C@H](C)N2CC=C(c4c(C)cc(C(=O)N5CCC(CN6CCN(c7ncc(NC8CCC(=O)NC8=O)cc7F)C[C@@H]6C)CC5)cc4F)CC2)n3C)c(=O)c1 (stereo partly drawn) [Example 2g94, 3-((5-fluoro-6-((S)-4-((1-(3-fluoro-5-methyl-4-(1-((S)-1-(1-methyl-4-(4-(methyl-amino)-2-oxopyridin-1(2H)-yl)-1H-pyrrolo[2,3-b]pyridin-2-yl)ethyl)-1,2,3,6-tetrahydro-pyridin-4-yl)benzoyl)piperi-din-4-yl)methyl)-3-methyl-piperazin-1-yl)pyridin-3-yl)-amino)piperidine-2,6-dione]",6.6,23.6
"CNc1ccn(-c2ccnc3c2cc([C@H](C)N2CC=C(c4c(C)cc(C(=O)N5CCn6nc(CN7CCC(c8ccc(NC9CCC(=O)NC9=O)c(OC)c8)CC7)c(Cl)c6C5)cc4F)CC2)n3C)c(=O)c1 (stereo partly drawn) [Example 2g52, 3-((4-(1-((3-chloro-5-(3-fluoro-5-methyl-4-(1-((S)-1-(1-methyl-4-(4-(methyl-amino)-2-oxopyridin-1(2H)-yl)-1H-pyrrolo[2,3-b]pyridin-2-yl)ethyl)-1,2,3,6-tetrahydro-pyridin-4-yl)benzoyl)-4,5,6,7-tetrahydropyrazolo[1,5-a]pyrazin-2-yl)methyl)piperi-din-4-yl)-2-methoxyphenyl)-amino)piperidine-2,6-dione]",0.8,0.3
"CNc1ccn(-c2ccnc3c2cc([C@H](C)N2CC=C(c4c(C)cc(C(=O)N5CCn6nc(CN7CCC(c8ccc(N[C@@H]9CCC(=O)NC9=O)c(OC)c8)CC7)cc6C5)cc4F)CC2)n3C)c(=O)c1 (single isomer, unassigned) [Example 2g118]",0.1,1.1
"CNc1ccn(-c2ccnc3c2cc(CN2CCC(c4c(F)cc(C(=O)N5CCn6nc(CN7CCC(c8ccc(NC9CCC(=O)NC9=O)cc8F)CC7)cc6C5)cc4F)CC2)n3C)c(=O)c1 (single isomer, unassigned) [Example 2g101]",1,0.4
"Cc1cc(C(=O)N2CCn3nc(CN4CCC(c5ccc(NC6CCC(=O)NC6=O)cc5F)CC4)cc3C2)cc(F)c1C1=CCN([C@@H](C)c2cc3c(-n4ccc5c(c4=O)CCN5)ccnc3n2C)CC1 (stereo partly drawn) [Example 2g25, 3-((3-fluoro-4-(1-((5-(3-fluoro-5-methyl-4-(1-((S)-1-(1-methyl-4-(4-oxo-1,2,3,4-tetrahydro-5H-pyrrolo[3,2-c]pyridin-5-yl)-1H-pyrrolo[2,3-b]pyridin-2-yl)ethyl)-1,2,3,6-tetrahydropyridin-4-yl)benzo-yl)-4,5,6,7-tetrahydropyrazolo [1,5-a]pyrazin-2-yl)methyl)-piperidin-4-yl)phenyl)amino)-piperidine-2,6-dione]",0.6,0.4
